Test results reported in the CheMixHub viscosity set.
Values joined by “and” are separate entries in the source; they are usually repeats but may differ in a detail not shown here. Identical values can stand only once. ± gives the uncertainty stated by the source.

Assay: xn = mol fraction of the nth substance listed

CCCCCCCCCCCCCCCC + c1ccccc1
Settings | viscosity
298 K, 101 kPa, x2 = 0.5 | 1.65 ± 0.043 mPa·s and 1.651 ± 0.043 mPa·s
298.15 K, 101.33 kPa, x1 = 0.0535 | 0.6803 ± 0.006 mPa·s
298.15 K, 101.33 kPa, x1 = 0.09944 | 0.7563 ± 0.0066 mPa·s
298.15 K, 101.33 kPa, x1 = 0.2199 | 0.9761 ± 0.0082 mPa·s
298.15 K, 101.33 kPa, x1 = 0.3234 | 1.161 ± 0.0095 mPa·s
298.15 K, 101.33 kPa, x1 = 0.4341 | 1.429 ± 0.011 mPa·s
298.15 K, 101.33 kPa, x1 = 0.5194 | 1.649 ± 0.013 mPa·s
298.15 K, 101.33 kPa, x1 = 0.641 | 1.972 ± 0.015 mPa·s
298.15 K, 101.33 kPa, x1 = 0.6928 | 2.107 ± 0.016 mPa·s
298.15 K, 101.33 kPa, x1 = 0.8361 | 2.492 ± 0.019 mPa·s
298.15 K, 101.33 kPa, x1 = 0.9416 | 2.887 ± 0.022 mPa·s
318 K, 101 kPa, x2 = 0.5 | 1.192 ± 0.032 mPa·s and 1.193 ± 0.032 mPa·s

CCOCCOCC + COCCOCCO
viscosity [mPa·s], 101.33 kPa
Settings | 298.15 K | 308.15 K
x1 = 0.0146 | 3.47 ± 0.081 | 2.55 ± 0.061
x2 = 0.0162 | 0.621 ± 0.017 | 0.538 ± 0.015
x2 = 0.0416 | 0.646 ± 0.018 | 0.559 ± 0.016
x2 = 0.0613 | 0.664 ± 0.018 | 0.574 ± 0.016
x2 = 0.0967 | 0.703 ± 0.019 | 0.6 ± 0.017
x2 = 0.1691 | 0.779 ± 0.021 | 0.666 ± 0.018
x2 = 0.2291 | 0.85 ± 0.022 | 0.718 ± 0.019
x2 = 0.2741 | 0.916 ± 0.024 | 0.765 ± 0.021
x2 = 0.3082 | 0.964 ± 0.025 | 0.809 ± 0.022
x2 = 0.344 | 1.014 ± 0.026 | 0.849 ± 0.022
x2 = 0.4006 | 1.115 ± 0.028 | 0.929 ± 0.024
x2 = 0.4593 | 1.232 ± 0.031 | 1.017 ± 0.026
x2 = 0.5082 | 1.346 ± 0.034 | 1.097 ± 0.028
x2 = 0.5635 | 1.492 ± 0.037 | 1.203 ± 0.03
x2 = 0.6145 | 1.65 ± 0.041 | 1.306 ± 0.033
x2 = 0.6552 | 1.793 ± 0.044 | 1.423 ± 0.035
x2 = 0.6969 | 1.949 ± 0.047 | 1.503 ± 0.037
x2 = 0.7526 | 2.186 ± 0.053 | 1.654 ± 0.041
x2 = 0.8075 | 2.441 ± 0.058 | 1.823 ± 0.045
x2 = 0.8567 | 2.699 ± 0.064 | 1.995 ± 0.048
x2 = 0.9074 | 2.985 ± 0.071 | 2.19 ± 0.053
x2 = 0.9515 | 3.253 ± 0.077 | 2.386 ± 0.057
